Our source for the Kd values is paper PMC8566422, “Thermodynamics of semi-specific ligand recognition: the binding of dipeptides to the E.coli dipeptide binding protein DppA” (European Biophysics Journal, 2021).

As a reminder, the Kd is the constant that tells how readily two partners part at equilibrium. Lower therefore signals tighter binding.

Structures are written as SMILES. Where a SMILES comes first, the peptide text is derived from it.

The assay deals with T1, DppA (E. coli dipeptide binding protein) (Escherichia coli, UniProt P23847).
T1 sequence (P23847 29-535): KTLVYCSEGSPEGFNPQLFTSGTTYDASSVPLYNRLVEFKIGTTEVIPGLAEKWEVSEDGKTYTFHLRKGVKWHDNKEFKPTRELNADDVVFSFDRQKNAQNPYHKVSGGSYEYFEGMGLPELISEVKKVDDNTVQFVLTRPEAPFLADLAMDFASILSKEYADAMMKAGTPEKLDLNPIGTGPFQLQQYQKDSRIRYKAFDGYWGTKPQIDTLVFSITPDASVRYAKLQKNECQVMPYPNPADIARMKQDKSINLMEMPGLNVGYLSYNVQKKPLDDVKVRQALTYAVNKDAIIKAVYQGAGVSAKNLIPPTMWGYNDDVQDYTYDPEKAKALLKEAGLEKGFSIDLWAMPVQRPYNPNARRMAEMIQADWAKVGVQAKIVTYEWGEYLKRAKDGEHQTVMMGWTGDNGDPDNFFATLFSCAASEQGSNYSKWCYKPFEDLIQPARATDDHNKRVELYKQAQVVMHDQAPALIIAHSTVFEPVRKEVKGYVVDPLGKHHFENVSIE
Briefly: isothermal titration calorimetry. The source says: isothermal titration calorimetry on DppA (E. coli dipeptide binding protein)
On the technique in general: Isothermal titration calorimetry measures the heat released or taken up as one component is titrated into another.

The compound `C[C@H](N)C(=O)N[C@@H](C)C(=O)O` [AA, Alanine–Alanine (A–A)] (H-Ala-Ala-OH) registered a Kd of 37 nM.

Turning to `C[C@H](N)C(=O)N[C@@H](Cc1ccccc1)C(=O)O` [AF, Alanine–Phenylalanine (A–F)], the affinity, expressed as Kd, was 357 nM.
